# Where two headings read alike, the source gives them in different places.
# How the values were obtained:
# [1] = test system: CHP-212 cells; conditions: DJ-1 siRNA, 10 nM DHT, 300 μM H2O2
# Description: Cells were re-plated and pretreated with 10 nM dihydroxytestosterone or vehicle control (ethanol) for twenty-four hours, followed by H2O2 (300 μM) treatment plus 10 nM dihydroxytestosterone or vehicle control for additional 24 hours. Cell toxicity was evaluated by MTT assay. Values are the mean±s.e.m. n=3 experiments; *: P=0.0068 (t-test).
# To test whether dihydroxytestosterone can reverse this increased susceptibility, endogenous DJ-1 expression in CHP-212 cells was inhibited using DJ-1-specific siRNA. […] The siRNA treated cells were then further treated with 10 nM of dihydroxytestosterone in the presence or absence of 300 μM of H2O2.
# CHP-212 cells or SH-SY5Y cells were plated in six-well culture dishes and transfected with 100 nM of siRNA against human DJ-1 constructs (SMARTpool reagent, Dharmacon, Lafayette, Colo.) or non-specific control siRNA constructs (siControl non-targeting pool, Dharmacon). […] Cells were harvested forty-eight hours post-transfection for RNA extraction or at Day 1,2, or 4 for Western blot or re-plated in 96 well plate for MTS assay at 48 hrs post-transfection.
# [2] = test system: AKT; conditions: 10 nM DHT
# Description: DJ-1 likely serves as a transcriptional co-activator of androgen receptor^50,51. To determine whether androgen receptor and androgen activate the AKT pathway in human dopaminergic cell lines, native SH-SY5Y cells were treated with 10 nM of […], and levels of phosphorylated AKT was assayed by Western blot. […] The role of androgen receptor signaling in the activation of AKT was also tested in SH-SY5Y cells that were transiently transfected with human androgen receptor then treated with […].
# (§1) Human CHP-212 cells were purchased from ATCC and maintained in cell culture media, EMEM/F-12 (50%/50%) containing 10% FBS and antibiotics. Native SH-SY5Y cells were maintained in DMEM supplemented with 10% FBS and antibiotics. For immunofluorescence, cells were grown on coverslips. […] Rat tyrosine hydroxylase-luc reporter plasmid (Kim et al Biochem Biophys Res Commun. 2003 Dec. 26; 312(4):950-7) and the pTK-Renilla luciferase plasmid for transfection control were obtained from Promega (Madison, Wis.). Human androgen receptor expression construct PCMV-Flag-AR was kindly provided by Dr. E. Wilson^75. H2O2 and DHT were purchased from Sigma (St. Louis, Mo.).
# (§2) The procedures for western blotting and immunoprecipitation were described previously^48. […]
# [3] = test system: tyrosine hydroxylase; conditions: untransfected CHP-212 cells, DHT 0-1000 nM, forty-eight hours
# Description: as §1, §2
# [4] = test system: tyrosine hydroxylase; conditions: CHP-212 cells pre-transfected with DJ-1-specific siRNA, increasing amount of DHT for forty-eight hours
# Description: The procedures for western blotting and immunoprecipitation were described previously^48. For DJ-1 immunoprecipitation, cells were lysed in denaturing RIPA-DOC buffer (50 mm Tris-HCl buffer (pH 8.0), containing 150 mM NaCl, 1% Triton X-100, 0.1% SDS, 1% sodium deoxycholate, 10 mM EDTA and a protease inhibitor cocktail (1× protease cocktail, Roche (Indianapolis, Ind.). For endogenous DJ-1 and PSF co-immunoprecipitation, cells were lysed in non-denaturing lysis buffer containing 1% Triton-X100. […] Antibody used for immunoprecipitation: rabbit polyclonal anti-DJ-15. Antibodies for western blotting include: a mouse monoclonal anti-tyrosine hydroxylase (Sigma); monoclonal (Stressgen, San Diego, Calif.) and polyclonal anti-DJ-1; a goat anti-β-actin (Santa Cruz Biotechnology, Santa Cruz, Calif.); a rabbit polyclonal anti-androgen receptor (Upstate, Charlottesville, Va.); a rabbit polyclonal anti-AKT and a mouse monoclonal anti-Phospho-AKT (Cell signaling, Beverly, Mass.). Antibodies used for immunoprecipitation included a mouse monoclonal anti-PSF (Sigma) and a rabbit polyclonal anti-DJ-1^18.
# [5] = most potent of the male steroid hormones; cited from earlier work
# [6] = test system: SH-SY5Y cells
# Description: FIG. 8A is a graph that quantifies relative cell viability in SH-SY5Y cells that were pretreated with dihydroxytestosterone (DHT) (1 or 10 nM) or vehicle control (Ethanol) for twenty-four hours, then were subjected to H2O2 (500 μM) treatment plus dihydroxytestosterone (1 or 10 nM) or vehicle control for an additional twenty-four hours. Cell toxicity was evaluated using a 3-(4,5-dimethylthiazol-2-yl)-2,5-diphenyltetrazolium bromide (MTT) assay. […] Cells were re-plated and pretreated with 10 nM dihydroxytestosterone or vehicle control (ethanol) for twenty-four hours, followed by H2O2 (300 μM) treatment plus 10 nM dihydroxytestosterone or vehicle control for additional 24 hours. Cell toxicity was evaluated by MTT assay. Values are the mean±s.e.m. n=3 experiments; *: P=0.0068 (t-test).
# To evaluate whether dihydroxytestosterone similarly protects against oxidative stress-induced cell death in human dopaminergic neuroblastoma cells, SH-SY5Y cells were treated with increasing amount of dihydroxytestosterone in the presence or absence of 500 μM of hydrogen peroxide (H2O2). […] The siRNA treated cells were then further treated with 10 nM of dihydroxytestosterone in the presence or absence of 300 μM of H2O2.
structure (smiles),measurement,setting,value
"C[C@]12CCC(=O)C[C@@H]1CC[C@@H]1[C@@H]2CC[C@]2(C)[C@@H](O)CC[C@@H]12 [dihydroxytestosterone, dihydrotestosterone]",oxidative stress-induced cell death in DJ-1-specific siRNA treated cells,[1],significantly reduced oxidative stress-induced cell death
same,time of peak level of phosphorylated AKT after treatment,[2]; SH-SY5Y cells transiently transfected with Flag-AR,15 min
same,time of peak level of phosphorylated AKT after treatment,[2]; native SH-SY5Y cells,ninety
same,AKT phosphorylation,"[2]; native SH-SY5Y cells, 5-90 minutes, no increase of total AKT",rapid phosphorylation of AKT
same,tyrosine hydroxylase protein levels,[3],dose-dependent increase
same,rescue of tyrosine hydroxylase expression after DJ-1 inactivation,[4],fully rescued
same,activity relative to testosterone,[5],10 times
same,cell death induced by oxidative stress,"[6]; DHT 1 or 10 nM pretreatment 24 h, then 500 μM H2O2 plus DHT 24 h",significantly blocked cell death
same,effect on cell viability in the absence of H2O2,"[6]; DHT 1 or 10 nM, no H2O2",subtle effect

# Reference: patent US20090325911A1, “Use of Androgens for the Treatment of Parkinson's Disease” (CARITAS ST. ELIZABETH MEDICAL CENTER OF BOSTON, INC., priority 2005, published 2009)
